These results are taken from US20170112877A1, “NON-TOXIC AGENT FOR A BROAD-SPECTRUM, BACTERICIDAL OR BACTERIOSTATIC TREATMENT OF ANTIBIOTIC-RESISTANT BACTERIA IN ANIMALS” (LIVELEAF, INC., priority 2015, published 2017).

Data set [1] has as its system E. coli. In words: Antibacterial activity against E. coli in Muller-Hinton broth. Type of data set: cell-based. The arrangement: key: “+” means positive identification of bacterial growth. To be noted: compound or extract alone, head 1%, 24 hours at 37° C. The text has this:
(§1) The testing methods used follow the procedures set-forth by the Clinical and Laboratory Standards Institute (CLSI) and US Pharmacopeia.
(§2) E. coli was chosen as the bacteria to challenge the antibacterial activity of the bound compositions and the free hydrogen peroxide. A range of E. coli concentrations, ranging from 10-10^6 CFU/ml were used for the study. […]
(§3) Table 2 compares the antibacterial activities of each of the model compounds and extracts alone, without the formation of the bound compositions: gallic acid (a model polyphenol building block), tannic acid (a model polyphenol), pomegranate husk extract, and green tea extract were each used to challenge the E. coli alone. […]

A short description of data set [2]: Amount of hydrogen peroxide bound to model compounds or extracts in dry form (peroxide test strip). Format: physicochemical. The source says:
Art-recognized procedures, such as those set-forth at least in U.S. Pat. Nos. 3,860,694; 3,864,454; 4,171,280; and 4,966,762, were used as a guide for this study. […] As discussed, one of skill will appreciate that hydrogen peroxide in a free form, for example, would otherwise quickly degrade. The polyphenols were provided from model compounds or plant extracts. A dry form of the compositions was made between (i) gallic acid (a model polyphenol building block from Sigma-Aldrich) and hydrogen peroxide; (ii) tannic acid (a model polyphenol component from Sigma-Aldrich) and hydrogen peroxide; (iii) pomegranate husk extract and hydrogen peroxide; and, (iv) green tea extract and hydrogen peroxide, using the procedures taught herein, including: • i. adding a solution of 35% hydrogen peroxide slowly into each of the gallic acid powder, tannic powder, pomegranate husk extract powder, or green tea extract powder. […] The hydrogen peroxide concentration measurements were taken using standard methods to determine the amount of hydrogen peroxide that bound to the model compounds or extracts in the dry form.

Data set [3] relates to E. coli. In words: Stability of hydrogen peroxide in aqueous solution, bound compositions vs free hydrogen peroxide, challenged with E. coli. Type of data set: physicochemical. As to conditions: for hydrogen peroxide concentration: 125 ppm extract + 125 ppm H2O2 (1:1), E. coli 10^6 CFU/ml. The text has this: This method tests the stability of the hydrogen peroxide in the combination. The testing methods used follow the standard procedures set-forth by the Clinical and Laboratory Standards Institute (CLSI) and US Pharmacopeia. • i. E. coli was chosen as the bacteria to challenge the stability of the bound compositions and the free hydrogen peroxide. • ii. The hydrogen peroxide concentration was matched to the selected bacteria in order to form a useful curve representing hydrogen peroxide degradation over time for the samples. […] FIG. 2A compares stabilities of free hydrogen peroxide to hydrogen peroxide bound to each of: gallic acid (a model polyphenol building block), tannic acid (a model polyphenol), pomegranate husk extract, green tea extract, and Blessed thistle extract. […] John's wort, Valerian, Apple, Grape, Echinacea purpurea, Grape seed extract, and Blueberry. In both FIGS. 2A and 2B, there are curves that cannot be identified well individually, as they are identical and overlapping. […]

Data set [4] relates to E. coli. Kind of data set: Antibacterial activity against E. coli in Muller-Hinton broth. To be noted: 100 ppm, 24 hours at 37° C. Type of data set: cell-based. The arrangement: key: “+” means identifiable bacterial growth.; “−” means no bacterial growth.
Description: as §1, §2, §3

The subject of data set [5] is E. coli. Described as above. Type of data set: cell-based. To be noted: 100 ppm, 24 hours at 37° C.
Description: as §1, §2, §3

SMILES strings stand for the structures.

For the molecule `O=C(O)c1cc(O)c(O)c(O)c1` [Gallic Acid, gallic acid], the bacterial growth entry in the data set on E. coli [1] (E coli 10 CFU/ml), with E. coli [1] (E coli 10^2 CFU/ml), in the data set with E. coli [1] (E coli 10^3 CFU/ml), in the data set on E. coli [1] (E coli 10^4 CFU/ml), in the data set on E. coli [1] (E coli 10^5 CFU/ml) and with E. coli [1] (E coli 10^6 CFU/ml) was “+” throughout. In data set [2], the “hydrogen peroxide bound, by total dry wt” value is recorded as “about 3.0%”.

Consider `OO` [H2O2, hydrogen peroxide], for which the hydrogen peroxide concentration with E. coli [3] (0 Hours) was found to be 125 ppm; in the data set with E. coli [3] (4 Hours), 15 ppm; in the data set on E. coli [3] (8 Hours) it was 0 ppm; with E. coli [3] (12 Hours) it was 0 ppm; in the data set with E. coli [3] (16 Hours) it was 0 ppm; in the data set with E. coli [3] (20 Hours), 0 ppm. Moreover, in the data set with E. coli [3] (24 Hours), the hydrogen peroxide concentration is on record as 0 ppm. In addition, the “hydrogen peroxide concentration after degradation” value in the data set on E. coli [3] (within about the first 8 hours) is recorded as about 0.0 ppm. Besides, the bacterial growth result with E. coli [4] (E coli 10^2 CFU/ml), in the data set on E. coli [4] (E coli 10^3 CFU/ml), in the data set with E. coli [4] (E coli 10^4 CFU/ml) and with E. coli [4] (E coli 10^5 CFU/ml) was “+” throughout. In addition, in the data set on E. coli [5], the “fate of E. coli, all concentrations” value is reported as “managed to survive”.

As for `O=C(OC[C@H]1O[C@@H](OC(=O)c2cc(O)c(O)c(OC(=O)c3cc(O)c(O)c(O)c3)c2)[C@H](OC(=O)c2cc(O)c(O)c(OC(=O)c3cc(O)c(O)c(O)c3)c2)[C@@H](OC(=O)c2cc(O)c(O)c(OC(=O)c3cc(O)c(O)c(O)c3)c2)[C@@H]1OC(=O)c1cc(O)c(O)c(OC(=O)c2cc(O)c(O)c(O)c2)c1)c1cc(O)c(O)c(OC(=O)c2cc(O)c(O)c(O)c2)c1` [Tannic Acid, tannic acid], the bacterial growth entry in the data set on E. coli [1] (E coli 10 CFU/ml), in the data set on E. coli [1] (E coli 10^2 CFU/ml), in the data set with E. coli [1] (E coli 10^3 CFU/ml), in the data set with E. coli [1] (E coli 10^4 CFU/ml), in the data set on E. coli [1] (E coli 10^5 CFU/ml) and in the data set with E. coli [1] (E coli 10^6 CFU/ml) was “+” throughout. Moreover, in data set [2], the “hydrogen peroxide bound, by total dry wt” value was “about 2.5%”.
